The values that follow are results of earlier work, collected in patent US20040241049A1, “Elastomeric tools for the fabrication of elastomeric devices and uses thereof” (priority 2003, published 2004).

The data set concerns α1-acid glycoprotein, αAGP. The settings on record: displacement of quinaldine red from αAGP; stated as known.
As to `CN(C)CCCN1c2ccccc2Sc2ccc(Cl)cc21` [chloropromazine], the “inhibition of QR/αAGP binding (binder / non-binder)” value (from here on “inhibition … (binder / non-binder)”) is “known inhibitors to QR/αAGP binding”.

Turning to `CC(C)Cc1ccc(C(C)C(=O)O)cc1` (stereo not drawn) [ibuprofen], the “inhibition … (binder / non-binder)” value was “non-binder”.

`O=C(O)c1cc(I)cc(I)c1I` [tri-idiobenzoic acid]: the “inhibition … (binder / non-binder)” value was “known inhibitors to QR/αAGP binding”.
